Assay results: patent publication US20240343692A1 (priority 2021, published 2024)

What was measured:
[1] = biological target: T1, 5-HT1A (Homo sapiens, UniProt P08908); experiment: Radioligand binding at 5-HT1A(h) (agonist radioligand), Eurofins Cerep Panlabs; conditions: human receptor, duplicate, read-out: Percent Inhibition of the Binding of a Specific Radioligand, 5-HT1A; for inhibition at 0.1 µM: % inh. at 100 nM; for inhibition at 1 µM: % inh. at 1.0 μM
T1 sequence (P08908 1-422): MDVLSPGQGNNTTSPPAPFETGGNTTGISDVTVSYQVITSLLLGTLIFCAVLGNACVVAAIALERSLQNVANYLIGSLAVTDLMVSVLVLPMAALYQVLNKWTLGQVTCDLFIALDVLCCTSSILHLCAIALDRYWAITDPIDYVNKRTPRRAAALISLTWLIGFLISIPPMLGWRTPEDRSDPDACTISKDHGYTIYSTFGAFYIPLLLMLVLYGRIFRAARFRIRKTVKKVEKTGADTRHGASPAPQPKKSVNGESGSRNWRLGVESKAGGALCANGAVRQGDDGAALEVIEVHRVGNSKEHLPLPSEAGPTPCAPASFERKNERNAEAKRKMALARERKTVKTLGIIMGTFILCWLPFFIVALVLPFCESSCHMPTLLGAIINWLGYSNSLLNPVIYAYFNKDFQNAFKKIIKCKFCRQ
Description: FIG. 1. Histogram for 5-HT1A(h) (agonist radioligand).

[2] = biological target: 5-HT2A (Homo sapiens, UniProt P28223); experiment: Radioligand binding at 5-HT2A(h) (agonist radioligand), Eurofins Cerep Panlabs; conditions: human receptor, duplicate, read-out: Percent Inhibition of the Binding of a Specific Radioligand, 5-HT2A; for inhibition at 0.1 µM: % inh. at 100 nM; for inhibition at 1 µM: % inh. at 1.0 μM
Sequence of 5-HT2A (P28223 whole entry, looked up): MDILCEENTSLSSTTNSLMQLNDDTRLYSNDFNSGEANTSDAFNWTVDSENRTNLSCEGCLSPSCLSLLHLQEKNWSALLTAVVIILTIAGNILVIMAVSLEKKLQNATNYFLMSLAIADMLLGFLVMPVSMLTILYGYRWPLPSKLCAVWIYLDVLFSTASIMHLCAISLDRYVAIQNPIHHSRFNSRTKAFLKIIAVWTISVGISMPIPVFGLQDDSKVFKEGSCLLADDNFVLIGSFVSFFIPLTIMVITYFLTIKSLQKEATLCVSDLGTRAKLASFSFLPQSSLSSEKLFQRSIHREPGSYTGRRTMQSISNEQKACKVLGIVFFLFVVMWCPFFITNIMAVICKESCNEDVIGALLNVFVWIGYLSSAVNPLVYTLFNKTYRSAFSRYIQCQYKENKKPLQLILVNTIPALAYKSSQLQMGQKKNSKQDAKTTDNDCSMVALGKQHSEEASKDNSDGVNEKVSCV
Description: FIG. 2. Histogram for 5-HT2A(h) (agonist radioligand).

[3] = biological target: 5-HT2B (Homo sapiens, UniProt P41595); experiment: Radioligand binding at 5-HT2B(h) (agonist radioligand), Eurofins Cerep Panlabs; conditions: human receptor, duplicate, read-out: Percent Inhibition of the Binding of a Specific Radioligand, 5-HT2B; for inhibition at 0.1 µM: % inh. at 100 nM; for inhibition at 1 µM: % inh. at 1.0 μM
Sequence of 5-HT2B (P41595 whole entry): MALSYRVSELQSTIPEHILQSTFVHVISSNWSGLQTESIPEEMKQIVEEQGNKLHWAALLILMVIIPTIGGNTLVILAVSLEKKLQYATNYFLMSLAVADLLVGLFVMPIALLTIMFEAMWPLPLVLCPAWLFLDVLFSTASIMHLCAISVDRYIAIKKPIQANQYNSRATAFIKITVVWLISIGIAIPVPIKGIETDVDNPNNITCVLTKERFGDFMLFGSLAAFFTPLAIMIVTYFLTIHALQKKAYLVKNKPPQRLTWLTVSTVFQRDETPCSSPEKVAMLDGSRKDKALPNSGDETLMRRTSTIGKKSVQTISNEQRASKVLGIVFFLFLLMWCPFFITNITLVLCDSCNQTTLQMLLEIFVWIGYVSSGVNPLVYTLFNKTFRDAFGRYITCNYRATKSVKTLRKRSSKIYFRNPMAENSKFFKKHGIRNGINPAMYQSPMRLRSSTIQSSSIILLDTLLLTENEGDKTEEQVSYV
Description: FIG. 3. Histogram for 5-HT2B(h) (agonist radioligand).

[4] = biological target: T2, 5-HT2C (Homo sapiens, UniProt P28335); experiment: Radioligand binding at 5-HT2C(h) (agonist radioligand), Eurofins Cerep Panlabs; conditions: human receptor, duplicate, read-out: Percent Inhibition of the Binding of a Specific Radioligand, 5-HT2C; for inhibition at 0.1 µM: % inh. at 100 nM; for inhibition at 1 µM: % inh. at 1.0 μM
T2 sequence (P28335 33-458): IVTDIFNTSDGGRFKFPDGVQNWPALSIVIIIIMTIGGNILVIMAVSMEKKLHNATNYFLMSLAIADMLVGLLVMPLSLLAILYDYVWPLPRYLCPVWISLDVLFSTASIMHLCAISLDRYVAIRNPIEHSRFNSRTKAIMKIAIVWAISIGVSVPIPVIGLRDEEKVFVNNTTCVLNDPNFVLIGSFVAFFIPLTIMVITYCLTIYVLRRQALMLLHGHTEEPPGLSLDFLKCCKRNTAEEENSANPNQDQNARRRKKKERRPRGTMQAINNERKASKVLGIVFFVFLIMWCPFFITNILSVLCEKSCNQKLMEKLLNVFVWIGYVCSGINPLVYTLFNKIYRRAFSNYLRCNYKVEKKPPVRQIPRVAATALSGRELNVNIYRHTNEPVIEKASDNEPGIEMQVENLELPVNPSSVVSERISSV
Description: FIG. 4. Histogram for 5-HT2C(h) (agonist radioligand).

[5] = tested on: Adrenergic α1; experiment: CNS receptor radioligand binding, Adrenergic α1; conditions: 10 μM; rat receptor data
[6] = biological target: Dopamine D1 (Homo sapiens, UniProt P21728); experiment: CNS receptor radioligand binding, Dopamine D1; conditions: 10 μM
Sequence of Dopamine D1 (P21728 whole entry): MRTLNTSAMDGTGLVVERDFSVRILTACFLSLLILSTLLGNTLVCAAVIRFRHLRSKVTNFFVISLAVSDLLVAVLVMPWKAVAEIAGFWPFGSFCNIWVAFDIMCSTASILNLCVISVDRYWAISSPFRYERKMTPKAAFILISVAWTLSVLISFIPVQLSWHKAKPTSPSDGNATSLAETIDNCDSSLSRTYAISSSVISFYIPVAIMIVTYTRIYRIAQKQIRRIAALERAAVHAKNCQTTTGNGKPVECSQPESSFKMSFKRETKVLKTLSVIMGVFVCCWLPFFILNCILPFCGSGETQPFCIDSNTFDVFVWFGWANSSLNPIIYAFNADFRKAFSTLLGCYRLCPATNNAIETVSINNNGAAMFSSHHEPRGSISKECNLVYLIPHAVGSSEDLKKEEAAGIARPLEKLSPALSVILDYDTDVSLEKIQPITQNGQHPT

[7] = biological target: Dopamine D2L (Homo sapiens, UniProt P14416); experiment: CNS receptor radioligand binding, Dopamine D2L; conditions: 10 μM
Sequence of Dopamine D2L (P14416 whole entry): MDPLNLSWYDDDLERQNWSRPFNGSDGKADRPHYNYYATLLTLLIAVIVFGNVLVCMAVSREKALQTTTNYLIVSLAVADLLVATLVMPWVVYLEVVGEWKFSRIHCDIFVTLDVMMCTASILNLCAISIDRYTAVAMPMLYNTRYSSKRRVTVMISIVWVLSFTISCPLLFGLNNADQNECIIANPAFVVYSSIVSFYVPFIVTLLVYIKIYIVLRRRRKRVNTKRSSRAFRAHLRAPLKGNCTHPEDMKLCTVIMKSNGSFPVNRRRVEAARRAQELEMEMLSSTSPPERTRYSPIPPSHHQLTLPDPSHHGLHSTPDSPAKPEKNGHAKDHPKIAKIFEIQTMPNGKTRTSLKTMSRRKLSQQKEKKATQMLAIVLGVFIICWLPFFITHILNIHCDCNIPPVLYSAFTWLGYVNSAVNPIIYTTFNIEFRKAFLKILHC

[8] = biological target: Dopamine D3 (Homo sapiens, UniProt P35462); experiment: CNS receptor radioligand binding, Dopamine D3
Sequence of Dopamine D3 (P35462 whole entry): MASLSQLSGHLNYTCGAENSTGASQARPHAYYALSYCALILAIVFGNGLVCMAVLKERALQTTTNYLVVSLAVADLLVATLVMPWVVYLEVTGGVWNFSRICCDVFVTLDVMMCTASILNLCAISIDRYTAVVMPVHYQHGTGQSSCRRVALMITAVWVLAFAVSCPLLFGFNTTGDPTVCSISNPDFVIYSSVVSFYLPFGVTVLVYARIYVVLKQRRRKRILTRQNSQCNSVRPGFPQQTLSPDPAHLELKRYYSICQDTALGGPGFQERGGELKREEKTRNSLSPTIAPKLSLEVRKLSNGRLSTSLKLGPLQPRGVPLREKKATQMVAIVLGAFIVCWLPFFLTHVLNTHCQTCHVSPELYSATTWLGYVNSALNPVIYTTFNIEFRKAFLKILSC

[9] = tested on: GABAA; experiment: CNS receptor radioligand binding, GABAA; conditions: 10 μM; rat receptor data
[10] = biological target: Histamine H1 (Homo sapiens, UniProt P35367); experiment: CNS receptor radioligand binding, Histamine H1 (human); conditions: 10 μM
Sequence of Histamine H1 (P35367 whole entry): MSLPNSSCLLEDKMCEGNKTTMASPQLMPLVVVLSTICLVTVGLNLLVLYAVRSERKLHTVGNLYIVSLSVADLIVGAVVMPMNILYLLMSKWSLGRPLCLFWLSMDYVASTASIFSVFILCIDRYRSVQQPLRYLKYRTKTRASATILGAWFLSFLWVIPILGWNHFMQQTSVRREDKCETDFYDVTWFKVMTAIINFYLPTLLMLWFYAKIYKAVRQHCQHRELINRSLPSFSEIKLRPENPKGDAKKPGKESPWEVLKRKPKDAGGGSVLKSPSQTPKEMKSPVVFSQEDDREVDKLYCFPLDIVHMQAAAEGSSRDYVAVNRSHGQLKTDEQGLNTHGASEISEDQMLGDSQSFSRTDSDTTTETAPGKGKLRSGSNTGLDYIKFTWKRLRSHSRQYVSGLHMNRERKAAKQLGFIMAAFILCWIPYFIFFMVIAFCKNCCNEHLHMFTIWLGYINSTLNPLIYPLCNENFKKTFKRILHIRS

[11] = biological target: T3, Muscarinic M2 (Homo sapiens, UniProt P08172); experiment: CNS receptor radioligand binding, Muscarinic M2; conditions: 10 μM
T3 sequence (P08172 1-466): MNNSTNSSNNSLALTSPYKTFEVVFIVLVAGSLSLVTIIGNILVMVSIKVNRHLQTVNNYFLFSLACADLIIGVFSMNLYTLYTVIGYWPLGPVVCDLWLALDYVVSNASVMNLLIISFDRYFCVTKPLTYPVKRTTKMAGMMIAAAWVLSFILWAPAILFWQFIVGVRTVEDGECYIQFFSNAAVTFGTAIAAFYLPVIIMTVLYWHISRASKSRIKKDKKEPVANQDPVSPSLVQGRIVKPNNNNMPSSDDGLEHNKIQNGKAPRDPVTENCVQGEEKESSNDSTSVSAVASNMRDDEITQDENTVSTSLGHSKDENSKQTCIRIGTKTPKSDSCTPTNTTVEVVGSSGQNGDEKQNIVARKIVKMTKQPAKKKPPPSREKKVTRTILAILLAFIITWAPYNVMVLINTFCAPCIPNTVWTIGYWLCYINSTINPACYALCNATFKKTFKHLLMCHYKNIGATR

[12] = biological target: T4, Muscarinic M5 (Homo sapiens, UniProt P08912); experiment: CNS receptor radioligand binding, Muscarinic M5; conditions: 10 μM
T4 sequence (P08912 1-532): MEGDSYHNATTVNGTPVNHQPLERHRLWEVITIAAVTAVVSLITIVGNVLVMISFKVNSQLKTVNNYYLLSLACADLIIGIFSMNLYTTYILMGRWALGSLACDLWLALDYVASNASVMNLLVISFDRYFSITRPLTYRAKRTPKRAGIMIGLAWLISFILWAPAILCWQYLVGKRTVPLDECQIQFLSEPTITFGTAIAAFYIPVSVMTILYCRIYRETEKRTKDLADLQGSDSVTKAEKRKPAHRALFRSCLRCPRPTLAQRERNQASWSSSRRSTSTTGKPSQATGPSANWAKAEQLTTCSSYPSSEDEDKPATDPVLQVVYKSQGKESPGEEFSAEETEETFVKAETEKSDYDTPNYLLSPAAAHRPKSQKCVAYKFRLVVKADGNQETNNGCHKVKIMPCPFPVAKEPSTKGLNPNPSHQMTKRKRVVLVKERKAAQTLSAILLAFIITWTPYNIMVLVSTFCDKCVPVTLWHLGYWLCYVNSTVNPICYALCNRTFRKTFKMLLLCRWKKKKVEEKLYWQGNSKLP

[13] = biological target: Nicotinic Acetylcholine α4β2 (Homo sapiens, UniProt P17787+P43681); experiment: CNS receptor radioligand binding, Nicotinic Acetylcholine α4β2; conditions: 10 μM
Sequence of Nicotinic Acetylcholine α4β2 (P43681 29-627 limits assumed): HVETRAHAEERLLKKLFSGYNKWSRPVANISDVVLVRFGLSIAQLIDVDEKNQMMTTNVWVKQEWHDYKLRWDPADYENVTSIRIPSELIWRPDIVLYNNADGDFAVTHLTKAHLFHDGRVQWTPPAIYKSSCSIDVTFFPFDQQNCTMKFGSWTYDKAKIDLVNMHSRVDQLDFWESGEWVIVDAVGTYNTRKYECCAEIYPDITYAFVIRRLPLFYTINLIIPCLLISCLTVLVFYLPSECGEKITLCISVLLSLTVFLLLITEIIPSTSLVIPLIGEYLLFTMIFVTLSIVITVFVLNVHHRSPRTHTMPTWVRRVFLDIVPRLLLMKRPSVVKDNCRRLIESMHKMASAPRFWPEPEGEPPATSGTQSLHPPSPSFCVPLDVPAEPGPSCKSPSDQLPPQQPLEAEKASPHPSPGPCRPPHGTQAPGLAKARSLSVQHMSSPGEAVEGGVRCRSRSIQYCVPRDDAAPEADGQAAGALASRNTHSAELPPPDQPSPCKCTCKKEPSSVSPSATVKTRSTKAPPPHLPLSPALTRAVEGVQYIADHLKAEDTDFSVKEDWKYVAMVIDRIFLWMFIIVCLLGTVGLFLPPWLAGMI
Sequence of Nicotinic Acetylcholine α4β2 (P17787 26-502): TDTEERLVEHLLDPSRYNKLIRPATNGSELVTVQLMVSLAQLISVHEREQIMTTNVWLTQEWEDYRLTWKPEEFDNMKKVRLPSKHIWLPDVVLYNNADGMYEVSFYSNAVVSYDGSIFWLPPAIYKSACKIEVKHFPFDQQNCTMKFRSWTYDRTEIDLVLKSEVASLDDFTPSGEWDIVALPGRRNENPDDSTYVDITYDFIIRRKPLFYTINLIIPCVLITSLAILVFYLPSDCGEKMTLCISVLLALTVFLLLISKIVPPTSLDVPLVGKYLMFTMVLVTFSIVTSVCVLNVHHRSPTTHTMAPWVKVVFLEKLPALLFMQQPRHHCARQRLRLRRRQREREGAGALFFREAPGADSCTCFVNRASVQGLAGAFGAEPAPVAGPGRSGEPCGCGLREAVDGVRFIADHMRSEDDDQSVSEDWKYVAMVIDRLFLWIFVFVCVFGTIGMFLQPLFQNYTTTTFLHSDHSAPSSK

[14] = biological target: Opiate κ (Homo sapiens, UniProt P41145); experiment: CNS receptor radioligand binding, Opiate κ; conditions: 10 μM
Sequence of Opiate κ (P41145 whole entry): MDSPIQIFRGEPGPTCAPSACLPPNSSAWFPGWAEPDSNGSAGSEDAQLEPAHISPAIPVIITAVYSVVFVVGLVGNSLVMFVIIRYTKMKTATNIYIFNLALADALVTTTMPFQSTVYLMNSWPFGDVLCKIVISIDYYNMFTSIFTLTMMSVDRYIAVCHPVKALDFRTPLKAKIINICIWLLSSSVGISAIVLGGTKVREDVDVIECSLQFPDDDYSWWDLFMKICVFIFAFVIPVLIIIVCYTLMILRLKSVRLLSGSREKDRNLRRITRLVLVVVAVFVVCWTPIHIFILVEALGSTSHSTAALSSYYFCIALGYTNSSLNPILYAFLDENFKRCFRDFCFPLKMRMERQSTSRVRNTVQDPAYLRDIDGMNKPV

[15] = biological target: T5, Orexin OX1 (Homo sapiens, UniProt O43613); experiment: CNS receptor radioligand binding, Orexin OX1; conditions: 10 μM
T5 sequence (O43613 1-425): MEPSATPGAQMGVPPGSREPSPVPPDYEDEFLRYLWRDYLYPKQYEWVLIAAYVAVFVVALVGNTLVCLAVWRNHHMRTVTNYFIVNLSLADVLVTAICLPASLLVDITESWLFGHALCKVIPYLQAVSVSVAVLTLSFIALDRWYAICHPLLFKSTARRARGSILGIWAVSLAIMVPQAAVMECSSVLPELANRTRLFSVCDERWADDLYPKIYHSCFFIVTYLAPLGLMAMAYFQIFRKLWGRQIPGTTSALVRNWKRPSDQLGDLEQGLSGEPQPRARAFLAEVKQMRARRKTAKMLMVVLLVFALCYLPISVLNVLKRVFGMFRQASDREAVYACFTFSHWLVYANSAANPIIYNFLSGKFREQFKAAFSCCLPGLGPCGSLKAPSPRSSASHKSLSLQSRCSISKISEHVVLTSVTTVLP

[16] = biological target: T6, Serotonin 5-HT1A (Homo sapiens, UniProt P08908); experiment: CNS receptor radioligand binding, Serotonin 5-HT1A
T6 sequence (P08908 1-422): T1 sequence (P08908 1-422)

[17] = biological target: T7, Serotonin 5-HT2A (Homo sapiens, UniProt P28223); experiment: CNS receptor radioligand binding, Serotonin 5-HT2A
T7 sequence (P28223 whole entry, looked up): as the sequence (P28223 whole entry, looked up) above

[18] = biological target: T6, Serotonin 5-HT1A; experiment: Receptor activation potency, Serotonin 5-HT1A; format: biochemical; conditions: 5-point concentration response curves, duplicate
[19] = biological target: T7, Serotonin 5-HT2A; experiment: Receptor activation potency, Serotonin 5-HT2A; format: biochemical; conditions: 5-point concentration response curves, duplicate
[20] = biological target: Serotonin 5-HT2B (Homo sapiens, UniProt P41595); experiment: Receptor activation potency, Serotonin 5-HT2B; format: biochemical; conditions: 5-point concentration response curves, duplicate
Sequence of Serotonin 5-HT2B (P41595 whole entry): as the sequence (P41595 whole entry) above

[21] = biological target: T8, Serotonin 5-HT2C (Homo sapiens, UniProt P28335); experiment: Receptor activation potency, Serotonin 5-HT2C; format: biochemical; conditions: 5-point concentration response curves, duplicate
T8 sequence (P28335 33-458): T2 sequence (P28335 33-458)

[22] = biological target: Sigma-1 (Homo sapiens, UniProt Q99720); experiment: Inhibition constant, Sigma-1; format: binding; conditions: human receptor; 5-point concentration response curves; duplicate; read-out: inhibition constants Ki, Sigma-1
Sequence of Sigma-1 (Q99720 whole entry): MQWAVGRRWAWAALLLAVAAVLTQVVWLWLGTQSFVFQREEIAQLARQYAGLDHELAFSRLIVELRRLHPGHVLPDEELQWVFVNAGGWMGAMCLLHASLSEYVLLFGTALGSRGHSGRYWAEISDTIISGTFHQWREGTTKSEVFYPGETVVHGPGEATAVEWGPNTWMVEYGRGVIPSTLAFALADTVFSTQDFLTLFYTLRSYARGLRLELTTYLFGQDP

Compound | inhibition at 0.1 µM [1] | inhibition at 1 µM [1] | inhibition at 0.1 µM [2] | inhibition at 1 µM [2] | inhibition at 0.1 µM [3] | inhibition at 1 µM [3] | inhibition at 0.1 µM [4] | inhibition at 1 µM [4] | Percent Inhibition of Specific Binding of a Radioligand Standard, Adrenergic α1 [5] | Percent Inhibition of Specific Binding of a Radioligand Standard, Dopamine D1 [6] | Percent Inhibition of Specific Binding of a Radioligand Standard, Dopamine D2L [7] | Percent Inhibition of Specific Binding of a Radioligand Standard, Dopamine D3 ([8]; 1 μM) | Percent Inhibition of Specific Binding of a Radioligand Standard, Dopamine D3 ([8]; 10 μM) | Percent Inhibition of Specific Binding of a Radioligand Standard, GABAA [9] | Percent Inhibition of Specific Binding of a Radioligand Standard, Histamine H1 [10] | Percent Inhibition of Specific Binding of a Radioligand Standard, Muscarinic M2 [11] | Percent Inhibition of Specific Binding of a Radioligand Standard, Muscarinic M5 [12] | Percent Inhibition of Specific Binding of a Radioligand Standard, Nicotinic Acetylcholine α4β2 [13] | Percent Inhibition of Specific Binding of a Radioligand Standard, Opiate κ [14] | Percent Inhibition of Specific Binding of a Radioligand Standard, Orexin OX1 [15] | other results
CN1C[C@H](CO)C=C2c3cccc4[nH]cc(c34)C[C@H]21 [(+)-1, (+)-lysergol] | 94% | 99% | 96% | 97% | 96% | 99% | 97% | 99% |  |  |  |  |  |  |  |  |  |  |  |  | 
CN1C[C@@H](CO)C=C2c3cccc4[nH]cc(c34)C[C@H]21 [(+)-2, (+)-isolysergol] | 96% | 99% | 92% | 99% | 90% | 93% | 91% | 97% |  |  |  |  |  |  |  |  |  |  |  |  | 
CN1C[C@@H](CO)C=C2c3cccc4[nH]cc(c34)C[C@@H]21 [(−)-1, (−)-lysergol] | 27% | 67% | 12% | 62% | 34% | 87% | 41% | 86% |  |  |  |  |  |  |  |  |  |  |  |  | 
CN1C[C@H](CO)C=C2c3cccc4[nH]cc(c34)C[C@@H]21 [(−)-2, (−)-isolysergol] | 9% | 19% | 0% | 20% | 3% | 16% | 5% | 44% |  |  |  |  |  |  |  |  |  |  |  |  | 
(+)-Cycloclavine |  |  |  |  |  |  |  |  | 57 % inh | 91 % inh | 81 % inh | 75 % inh | 93 % inh | 9 % inh | 17 % inh | 0 % inh | 11 % inh | 9 % inh | 73 % inh | 23 % inh | Percent Inhibition of Specific Binding of a Radioligand Standard, Serotonin 5-HT1A ([16]; 1 μM): 97 % inh; Percent Inhibition of Specific Binding of a Radioligand Standard, Serotonin 5-HT1A ([16]; 10 μM): 97 % inh; Percent Inhibition of Specific Binding of a Radioligand Standard, Serotonin 5-HT2A ([17]; 1 μM): 100 % inh; Percent Inhibition of Specific Binding of a Radioligand Standard, Serotonin 5-HT2A ([17]; 10 μM): 100 % inh; EC50 [18]: 0.14 µM; EC50 [19]: ~10 µM; EC50 [20]: > 20 µM; EC50 [21]: 0.016 µM; Ki [22]: ~50 µM
(−)-Cycloclavine |  |  |  |  |  |  |  |  | 59 % inh | 30 % inh | 14 % inh | 32 % inh | 64 % inh | 0 % inh | 27 % inh | 0 % inh | 15 % inh | 11 % inh | 75 % inh | 6 % inh | Percent Inhibition of Specific Binding of a Radioligand Standard, Serotonin 5-HT1A ([16]; 1 μM): 73 % inh; Percent Inhibition of Specific Binding of a Radioligand Standard, Serotonin 5-HT1A ([16]; 10 μM): 91 % inh; Percent Inhibition of Specific Binding of a Radioligand Standard, Serotonin 5-HT2A ([17]; 1 μM): 51 % inh; Percent Inhibition of Specific Binding of a Radioligand Standard, Serotonin 5-HT2A ([17]; 10 μM): 89 % inh; EC50 [18]: ~5 µM; EC50 [19]: > 50 µM; EC50 [20]: > 20 µM; EC50 [21]: 3.2 µM; Ki [22]: 8.3 µM
